Data on 23 compounds can be found in patent publication US7202269B2, “GlyT2 modulators” (Janssen Pharmaceutica N.V., priority 2003, dated 2007).

The assay concerns the target T1, human glycine transporter-2 (GlyT2) (Homo sapiens, UniProt Q9Y345).
T1 construct: The entire coding region of the human GlyT2 cDNA was cloned into the mammalian expression vector pClNeo; expressed in transfected cells; host or cells: Cos-7 cells (African green monkey kidney, ATCC), stably transfected, G418-selected; vector pClNeo
T1 sequence (Q9Y345 1-797): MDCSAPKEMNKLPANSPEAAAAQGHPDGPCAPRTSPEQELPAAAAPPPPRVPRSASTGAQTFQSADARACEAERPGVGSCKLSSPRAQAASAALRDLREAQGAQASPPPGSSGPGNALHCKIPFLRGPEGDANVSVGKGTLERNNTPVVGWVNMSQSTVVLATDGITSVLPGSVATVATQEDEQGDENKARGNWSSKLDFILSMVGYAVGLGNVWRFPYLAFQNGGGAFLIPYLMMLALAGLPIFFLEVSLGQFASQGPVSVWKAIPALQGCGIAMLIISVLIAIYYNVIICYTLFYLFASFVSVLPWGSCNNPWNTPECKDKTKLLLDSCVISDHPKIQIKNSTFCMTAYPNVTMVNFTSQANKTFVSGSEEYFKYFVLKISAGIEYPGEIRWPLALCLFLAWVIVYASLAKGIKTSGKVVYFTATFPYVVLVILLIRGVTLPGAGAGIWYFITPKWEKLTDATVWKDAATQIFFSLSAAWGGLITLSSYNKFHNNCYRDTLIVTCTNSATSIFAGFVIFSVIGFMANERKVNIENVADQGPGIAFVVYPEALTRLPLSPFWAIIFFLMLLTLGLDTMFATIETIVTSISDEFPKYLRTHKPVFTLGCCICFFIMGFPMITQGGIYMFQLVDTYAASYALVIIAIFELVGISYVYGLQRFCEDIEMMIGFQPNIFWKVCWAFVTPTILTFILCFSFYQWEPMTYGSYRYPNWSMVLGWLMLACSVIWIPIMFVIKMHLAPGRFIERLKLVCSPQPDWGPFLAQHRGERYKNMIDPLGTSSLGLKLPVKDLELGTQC
As to the kind of experiment: Inhibition of [14C]-glycine uptake in COS-7 cells transfected with human GlyT2. To be noted: 2 h at 37° C., Cos-7 cells stably transfected with human GlyT2. The assay is classed as cell-based. On the procedure:
GlyT2 antagonist activity of representative compounds of the invention was determined in accordance with the assay described in the Examples and by measuring the ability of compounds to inhibit the uptake of [^14C]-glycine in COS-7 cells transfected with the human glycine transporter-2 (GlyT2). The GlyT2 antagonist activities of these representative compounds are set forth hereinafter in Table 1.
Cos-7 cells (African green monkey, kidney) from American Type Culture Collection were grown in DMEM supplemented with 10% fetal bovine serum. The entire coding region of the human GlyT2 cDNA was cloned into the mammalian expression vector pClNeo, and then stably transfected into Cos-7 cells. Transfection was performed essentially as described by T. W. Lovenberg et al. (Mol. Pharmacol. 1999, 55:1101–1107): Briefly, cells were grown to 70–80% confluence, removed from the plate with trypsin, and pelleted in a clinical centrifuge. The pellet was resuspended in 400 μL complete medium and transferred to an electroporation cuvette with a 0.4 cm gap between the electrodes (Bio-Rad, 165–2088). One microgram of supercoiled GlyT2 cDNA was added to the cells, and the suspension was mixed. The voltage for the electroporation was set at 0.25 kV, and the capacitance was set at 960 μF. After electroporation, the cuvette contents were diluted to 10 mL with complete medium, and 0.5 mL, 1.0 mL, 2.0 mL and remainder (˜6.5 mL) portions were plated onto four 10-cm dishes. The cells were incubated 24 h before adding 600 μg/mL G418. Colonies that survived selection were isolated and tested for GlyT2 expression.
The day before the assay, the GlyT2 expressing cells were plated into 96-well scintillating microplates (Amersham, RPNQ 0160) at a density of approximately 20,000 cells per well. Cells were grown overnight at 37° C. in 5% CO2 and then washed once with 37° C. HEPES buffered saline (HBS: 150 mM NaCl, 20 mM HEPES, 1 mM CaCl2, 10 mM glucose, 5 mM KCl, 1 mM MgCl2; pH 7.4). Eighty microliters of 37° C. HBS was subsequently added to each well. Test solutions of GlyT2 inhibitors were prepared in HBS from DMSO stock solutions, and 5 μL of test solution was added to each test well. Total transport and non-specific background were determined by adding 5 μL HBS or 5 μL 2 M glycine, respectively, to the appropriate control wells. Plates were then left at rt for 5 min before the addition of 20 μL of 100 μM ^14C-glycine (NEN, NEC 048H) to each well for a final concentration of 20 μM. Plates were incubated for 2 h at 37° C. with 5% CO2. After 2 h the reaction mixtures were removed by aspiration, and the plates were washed once with ice-cold HBS. Plates were sealed with TopSeal (Packard, 6005185) and counted on a Packard TopCount® scintillation counter.

`N#C/N=C(\Nc1ccc(-c2ccccc2)cc1)N[C@@H](Cc1ccccc1)C(=O)NCCCN1CCCC1` [Example 1, (S)-2-(N′-Biphenyl-4-yl-N″-cyano-guanidino)-3-phenyl-N-(3-pyrrolidin-1-yl-propyl)-propionamide] displayed a half-maximal inhibitory concentration (IC50) (Table 1, 20 μM) of 11 nM.

`O=C(Nc1ccc(-c2ccccc2)cc1)N[C@H](CCCNCCN1CCCC1)Cc1ccccc1` [Example 2, 1-[(R)-1-Benzyl-4-(2-pyrrolidin-1-yl-ethylamino)-butyl]-3-biphenyl-4-yl-urea] registered an IC50 (Table 2, 20 μM) of 18 nM.

`CC(C)N(CCNC(=O)[C@H](Cc1ccccc1)NC(=O)Nc1ccc(Oc2ccc(Cl)cc2)cc1)C(C)C` [Example 3, (S)-2-{3-[4-(4-Chloro-phenoxy)-phenyl]-ureido}-N-(2-diisopropylamino-ethyl)-3-phenyl-propionamide] had a 50% inhibitory concentration (IC50) (Table 2, 20 μM) of 18 nM. `Cc1ccc([C@@H](CC(=O)NCCN2CCCC2)NC(=O)Nc2ccc(-c3ccccc3)cc2)cc1` [Example 6, (R)-3-(3-Biphenyl-4-yl-ureido)-N-(2-pyrrolidin-1-yl-ethyl)-3-p-tolyl-propionamide] yielded an IC50 (Table 2, 20 μM) of 27 nM. `N#C/N=C(\Nc1ccc(-c2ccccc2)cc1)N[C@H](CC(=O)NCCN1CCCC1)c1ccccc1` [Example 8, (R)-3-(N′-Biphenyl-4-yl-N″-cyano-guanidino)-3-phenyl-N-(2-pyrrolidin-1-yl-ethyl)-propionamide] yielded an IC50 (Table 1, 20 μM) of 31 nM. Turning to `O=C(NCCN1CCCC1)[C@H](Cc1ccccc1)NC(=S)Nc1ccc(Oc2ccc(Cl)cc2)cc1` [Example 9, (S)-2-{3-[4-(4-Chloro-phenoxy)-phenyl]-thioureido}-3-phenyl-N-(2-pyrrolidin-1-yl-ethyl)-propionamide], the IC50 (Table 3, 20 μM) came to 32 nM.

For the compound `O=C(/C=C/[C@H](Cc1ccccc1)NC(=O)Nc1ccc(Oc2ccc(F)cc2)cc1)NCCN1CCCC1` [Example 11, (E)-(S)-4-{3-[4-(4-Fluoro-phenoxy)-phenyl]-ureido}-5-phenyl-pent-2-enoic Acid (2-pyrrolidin-1-yl-ethyl)-amide], under “Table 2, 20 μM”, the IC50 was determined as 39 nM. Where the note is “Table 2, 20 μM”, `CCN(CC)CCNC(=O)/C=C/[C@H](Cc1ccccc1)NC(=O)Nc1ccc(-c2ccccc2)cc1` [Example 19, (E)-(S)-4-(3-Biphenyl-4-yl-ureido)-5-phenyl-pent-2-enoic Acid (2-diethylamino-ethyl)-amide] returned a concentration for half-maximal inhibition (IC50) of 48 nM.

In the case of `CC(C)NCCNC(=O)/C=C/[C@H](Cc1ccccc1)NC(=O)Nc1ccc(-c2ccccc2)cc1` [Example 21, (E)-(S)-4-(3-Biphenyl-4-yl-ureido)-5-phenyl-pent-2-enoic Acid (2-isopropylamino-ethyl)-amide], the IC50 (Table 2, 20 μM) amounted to 52 nM. `CC(C)NCCNC(=O)CC[C@H](Cc1ccccc1)NC(=O)Nc1ccc(-c2ccccc2)cc1` [Example 26, (R)-4-(3-Biphenyl-4-yl-ureido)-5-phenyl-pentanoic Acid (2-isopropylamino-ethyl)-amide]: half-maximal inhibition (Table 2, 20 μM) (IC50) was put at 57 nM. Compound `O=C(CNc1ccc(Oc2ccc(Cl)cc2)cc1)N[C@@H](Cc1ccccc1)C(=O)NCCN1CCCC1` [Example 27, (S)-2-{2-[4-(4-Chloro-phenoxy)-phenylamino]-acetylamino}-3-phenyl-N-(2-pyrrolidin-1-yl-ethyl)-propionamide] returned a 50% inhibitory concentration (IC50) (Table 2, 20 μM) of 58 nM. On to `O=C(C[C@H](Cc1ccccc1)NC(=O)CNc1ccc(Oc2ccc(Cl)cc2)cc1)NCCN1CCCC1` [Example 28, (S)-3-{2-[4-(4-Chloro-phenoxy)-phenylamino]-acetylamino}-4-phenyl-N-(2-pyrrolidin-1-yl-ethyl)-butyramide], for which the IC50 (Table 2, 20 μM) came to 95 nM.

`O=C(CC[C@H](Cc1ccccc1)NC(=S)Nc1ccc(-c2ccccc2)cc1)NCCN1CCCC1` [Example 31, (R)-4-(3-Biphenyl-4-yl-thioureido)-5-phenyl-pentanoic Acid (2-pyrrolidin-1-yl-ethyl)-amide]: where the note is “Table 3, 20 μM”, the half-inhibitory concentration (IC50) came to 89 nM. Compound `N#C/N=C(\Nc1ccc(-c2ccccc2)cc1)N[C@H](CCC(=O)NCCN1CCCC1)Cc1ccccc1` [Example 42, (R)-4-(N′-Biphenyl-4-yl-N″-cyano-guanidino)-5-phenyl-pentanoic Acid (2-pyrrolidin-1-yl-ethyl)-amide] yielded an IC50 (Table 1, 20 μM) of 93 nM. For the setting “Table 1, 20 μM”, `N#C/N=C(\Nc1ccc(-c2ccccc2)cc1)N[C@H](CC(=O)NCCN1CCCC1)Cc1ccccc1` [Example 53, (S)-3-(N′-Biphenyl-4-yl-N″-cyano-guanidino)-4-phenyl-N-(2-pyrrolidin-1-yl-ethyl)-butyramide] registered an IC50 of 103 nM.

For the setting “Table 2, 20 μM”, `CN(C)CCN(C)C(=O)C(Cc1ccccc1)NC(=O)Nc1ccc(-c2ccccc2)cc1` (centres unmarked) [Example 61, 2-(3-Biphenyl-4-yl-ureido)-N-(2-dimethylamino-ethyl)-N-methyl-3-phenyl-propionamide] showed an IC50 of 3500 nM. Where the note is “Table 2, 20 μM”, `CC(C)N(CCNC(=O)[C@H](Cc1ccccc1)NC(=O)Nc1ccc(-c2cccs2)cc1)C(C)C` [Example 65, (S)-N-(2-Diisopropylamino-ethyl)-3-phenyl-2-[3-(4-thiophen-2-yl-phenyl)-ureido]-propionamide] came in with an IC50 of 405 nM. Compound `O=C(Nc1ccc(Oc2ccccc2)cc1)N[C@@H](Cc1cscn1)C(=O)NCCN1CCCC1` [Example 74, (S)-2-[3-(4-Phenoxy-phenyl)-ureido]-N-(2-pyrrolidin-1-yl-ethyl)-3-thiazol-4-yl-propionamide] had an IC50 (Table 2, 20 μM) of 1060 nM. In the case of `O=C(Nc1ccc(-c2ccccc2)cc1)NC1(C(=O)NCCN2CCCC2)Cc2ccccc2C1` [Example 84, 2-(3-Biphenyl-4-yl-ureido)-indan-2-carboxylic Acid (2-pyrrolidin-1-yl-ethyl)-amide], under “Table 2, 20 μM”, the IC50 is 10000 nM. `O=C(Nc1ccc(S(=O)(=O)c2ccc(Cl)cc2)cc1)N[C@@H](Cc1ccccc1)C(=O)NCCN1CCCC1` [Example 85, (S)-2-{3-[4-(4-Chloro-benzenesulfonyl)-phenyl]-ureido}-3-phenyl-N-(2-pyrrolidin-1-yl-ethyl)-propionamide]: the half-maximal inhibitory concentration (IC50) (Table 2, 20 μM) is 269 nM. As to `CCCNCCNC(=O)CC[C@H](Cc1ccccc1)NC(=O)Nc1ccc(-c2ccccc2)cc1` [Example 87, (R)-4-(3-Biphenyl-4-yl-ureido)-5-phenyl-pentanoic Acid (2-propylamino-ethyl)-amide], the midpoint of inhibition (Table 2, 20 μM), the IC50, lay at 76 nM. As to `NCCNC(=O)[C@H](Cc1ccccc1)NC(=O)Nc1ccc(Oc2ccccc2)cc1` [Example 98, (S)-N-(2-Amino-ethyl)-2-[3-(4-phenoxy-phenyl)-ureido]-3-phenyl-propionamide], the half-inhibitory concentration (IC50) (Table 2, 20 μM) was determined as 398 nM. Same read-out and setting: to `O=C(/C=C/[C@H](Cc1ccccc1)NC(=O)Nc1ccc(-c2ccccc2)cc1)NCCN1CCCC1` [Example 101, (E)-(S)-4-(3-Biphenyl-4-yl-ureido)-5-phenyl-pent-2-enoic Acid (2-pyrrolidin-1-yl-ethyl)-amide] belongs 112 nM.
